Source: US4304715A, “Enkephalin analogues” (priority 1979, dated 1981)

Assays:
mouse vas deferens = conditions: inhibition of electrically induced contractions, Met Enkephalin = 100%
Protocol: (ii) M.V.D. stands for mouse vas deferens
were performed as described in the literature

rat brain membranes = experiment: Radio receptor assay (R.R.A.), an opiate binding assay: displacement of tritiated naloxone from rat brain membranes; conditions: based on concentration required to displace 50% of (3H)naloxone (1nM) from rat brain membranes; pH 7.4, 15 minutes, bacitracin; Met Enkephalin = 100%

CSCC[C@H](NC(=O)[C@H](Cc1ccccc1)NC(=O)CNC(=O)CCCC(N)Cc1ccc(O)cc1)C(N)=O (stereo partly drawn) [Analogue H211, 5-Amino-6-(4'-hydroxyphenyl)-hexanoyl-glycyl-L-phenylalanyl-L-methionine amide]
Activity Relative to Met Enkephalin M.V.D. (mouse vas deferens): 0.9% | Activity Relative to Met Enkephalin R.R.A. (rat brain membranes): 9%
